Measured values reported in patent US8735414B2 (priority 2009, dated 2014).

How the values were obtained:
[1] = test system: bicistronic HCV replicon (replicon RNA, GenBank Accession No. AJ242654); assay: HCV Replicon Assay; type: cell-based; conditions: Hepatitis C virus, 72 h, read-out: Replicon IC50

Structure (SMILES)	melting point	IC50 [1]
Cc1cc2c(cc1Cl)c(C#N)c(-c1ccc(S(=O)(=O)N[C@@H](C)C(F)(F)F)cn1)n2C1CCC1 [compound 446, 6-(5-chloro-3-cyano-1-cyclobutyl-6-methyl-1H-indol-2-yl)-N-[(2S)-1,1,1-trifluoropropan-2-yl]pyridine-3-sulfonamide]	209 to 210 °C	< 500 nM
CCc1cc2c(cc1F)c(C(=O)O)c(-c1ccc(NS(=O)(=O)C(C)(C)C)nc1)n2[C@H](C)C1CC1 [compound 1103, 2-{6-[(tert-butylsulfonyl)amino]pyridin-3-yl}-1-[(1R)-1-cyclopropylethyl]-6-ethyl-5-fluoro-1H-indole-3-carboxylic acid]	165 °C (dec.)	500 to 2000 nM
C[C@H](NS(=O)(=O)c1cnc(-c2c(C#N)c3cc(Cl)ccc3n2C2CCC2)nc1)C(F)(F)F [compound 454, 2-(5-chloro-3-cyano-1-cyclobutyl-1H-indol-2-yl)-N-[(2S)-1,1,1-trifluoropropan-2-yl]pyrimidine-5-sulfonamide]	232 to 234 °C	< 500 nM
Cc1c(F)cc2c(C#N)c(-c3ccc(S(=O)(=O)N[C@H](C)C(F)(F)F)cn3)n(C3CCCC3)c2c1F [compound 653, 6-(3-cyano-1-cyclopentyl-5,7-difluoro-6-methyl-1H-indol-2-yl)-N-[(2R)-1,1,1-trifluoropropan-2-yl]pyridine-3-sulfonamide]	212 to 217 °C	< 500 nM
N#Cc1c(-c2ccc(S(=O)(=O)NC3(C(F)(F)F)CC3)cn2)n(C2CCC2)c2ccc(F)cc12 [compound 329, 6-(3-cyano-1-cyclobutyl-5-fluoro-1H-indol-2-yl)-N-[1-(trifluoromethyl)cyclopropyl]pyridine-3-sulfonamide]	176 to 183 °C	< 500 nM
Cc1ccc2c(C#N)c(-c3ccc(S(=O)(=O)N[C@@H](C)C(F)(F)F)cn3)n(C3CCCC3)c2c1 [compound 352, 6-(3-cyano-1-cyclopentyl-6-methyl-1H-indol-2-yl)-N-[(2S)-1,1,1-trifluoropropan-2-yl]pyridine-3-sulfonamide]	176 to 180 °C	< 500 nM
CCc1cc2c(cc1F)c(C#N)c(-c1ccc(S(=O)(=O)N[C@@H](C)C(F)(F)F)cn1)n2-c1cc(C)ccn1 [compound 932, 6-[3-cyano-6-ethyl-5-fluoro-1-(4-methylpyridin-2-yl)-1H-indol-2-yl]-N-[(2S)-1,1,1-trifluoropropan-2-yl]pyridine-3-sulfonamide]	188 to 190 °C	< 500 nM
C[C@H](NS(=O)(=O)c1cnc(-c2c(C#N)c3cc(F)ccc3n2C2CCC2)nc1)C(F)(F)F [compound 451, 2-(3-cyano-1-cyclobutyl-5-fluoro-1H-indol-2-yl)-N-[(2S)-1,1,1-trifluoropropan-2-yl]pyrimidine-5-sulfonamide]	198 to 203 °C	< 500 nM
C[C@H](NS(=O)(=O)c1ccc(-c2c(C(N)=O)c3cc(F)c(C4CC4)cc3n2C2CCC2)nc1)C(F)(F)F [compound 731, 1-cyclobutyl-6-cyclopropyl-5-fluoro-2-(5-{[(2S)-1,1,1-trifluoropropan-2-yl]sulfamoyl}pyridin-2-yl)-1H-indole-3-carboxamide]	225 to 227 °C	< 500 nM
CCS(=O)(=O)Nc1ccc(-c2c(C#N)c3ccc(OC)cc3n2C2CCC2)nn1 [compound 277, N-[6-(3-cyano-1-cyclobutyl-6-methoxy-1H-indol-2-yl)pyridazin-3-yl]ethanesulfonamide]	212 to 214 °C	< 500 nM
C[C@H](NS(=O)(=O)c1ccc(-c2c(C#N)c3cc(Cl)ccc3n2-c2ccccc2)nc1)C(F)(F)F [compound 441, 6-(5-chloro-3-cyano-1-phenyl-1H-indol-2-yl)-N-[(2S)-1,1,1-trifluoropropan-2-yl]pyridine-3-sulfonamide]	210 to 212 °C	< 500 nM
Cc1cc2c(cc1Cl)c(C#N)c(-c1ncc(S(=O)(=O)N[C@@H](C)C(F)(F)F)cn1)n2C1CCC1 [compound 448, 2-(5-chloro-3-cyano-1-cyclobutyl-6-methyl-1H-indol-2-yl)-N-[(2S)-1,1,1-trifluoropropan-2-yl]pyrimidine-5-sulfonamide]	> 300 °C	500 to 2000 nM
C[C@H](NS(=O)(=O)c1ccc(-c2c(C#N)c3ccc(Cl)cc3n2C2CCCCC2)nc1)C(F)(F)F [compound 515, 6-(6-chloro-3-cyano-1-cyclohexyl-1H-indol-2-yl)-N-[(2S)-1,1,1-trifluoropropan-2-yl]pyridine-3-sulfonamide]	217 to 224 °C	< 500 nM
CC(C)(C)NS(=O)(=O)c1ccc(-c2c(C#N)c3ccc(OC(F)(F)F)cc3n2C2CCCC2)nc1 [compound 18, N-tert-butyl-6-[3-cyano-1-cyclopentyl-6-(trifluoromethoxy)-1H-indol-2-yl]pyridine-3-sulfonamide]	182 to 184 °C	500 to 2000 nM
CCc1cc2c(C#N)c(-c3ccc(S(=O)(=O)N[C@@H](C)C(F)(F)F)cn3)n(C3CCC3)c2cc1OC(F)F [compound 647, 6-[3-cyano-1-cyclobutyl-6-(difluoromethoxy)-5-ethyl-1H-indol-2-yl]-N-[(2S)-1,1,1-trifluoropropan-2-yl]pyridine-3-sulfonamide]	160 to 162 °C	500 to 2000 nM
N#Cc1c(-c2ccc(S(=O)(=O)NC(CF)CF)cn2)n(-c2ccccc2)c2ccc(F)cc12 [compound 113, 6-(3-cyano-5-fluoro-1-phenyl-1H-indol-2-yl)-N-(1,3-difluoropropan-2-yl)pyridine-3-sulfonamide]	165 to 168 °C	< 500 nM
C[C@H](NS(=O)(=O)c1cnc(-c2c(C#N)c3ccc(OC(F)F)cc3n2C2CCCC2)nc1)C1CC1 [compound 209, 2-[3-cyano-1-cyclopentyl-6-(difluoromethoxy)-1H-indol-2-yl]-N-[(1S)-1-cyclopropylethyl]pyrimidine-5-sulfonamide]	183 to 185 °C	< 500 nM
Cc1cc2c(cc1F)c(C#N)c(-c1ccc(S(=O)(=O)NC(C)(C)C)cn1)n2C1CCCC1 [compound 643, N-tert-butyl-6-(3-cyano-1-cyclopentyl-5-fluoro-6-methyl-1H-indol-2-yl)pyridine-3-sulfonamide]	208 to 209 °C	< 500 nM
C[C@H](NS(=O)(=O)c1ccc(-c2c(C#N)c3ccc(OC(F)F)cc3n2C2CCCC2)nc1)C(F)(F)F [compound 589, 6-[3-cyano-1-cyclopentyl-6-(difluoromethoxy)-1H-indol-2-yl]-N-[(2S)-1,1,1-trifluoropropan-2-yl]pyridine-3-sulfonamide]	188 to 194 °C	< 500 nM
CC(C)NS(=O)(=O)c1cnc(-c2c(C(N)=O)c3ccc(OC(F)(F)F)cc3n2C2CCC2)nc1 [compound 781, 1-cyclobutyl-2-[5-(propan-2-ylsulfamoyl)pyrimidin-2-yl]-6-(trifluoromethoxy)-1H-indole-3-carboxamide]	222 to 223 °C	< 500 nM
CSc1cc2c(cc1F)c(C#N)c(-c1ccc(S(=O)(=O)N[C@@H](C)C(F)(F)F)cn1)n2C1CCC1 [compound 772, 6-[3-cyano-1-cyclobutyl-5-fluoro-6-(methylsulfanyl)-1H-indol-2-yl]-N-[(2S)-1,1,1-trifluoropropan-2-yl]pyridine-3-sulfonamide]	201 to 203 °C	< 500 nM
CC(C)(CF)NS(=O)(=O)c1ccc(-c2c(C#N)c3ccc(OC(F)F)cc3n2C2CCCC2)nc1 [compound 67, 6-[3-cyano-1-cyclopentyl-6-(difluoromethoxy)-1H-indol-2-yl]-N-(1-fluoro-2-methylpropan-2-yl)pyridine-3-sulfonamide]	224 to 229 °C	< 500 nM
CC(C)(C)NS(=O)(=O)c1ccc(-c2c(C#N)c3cc(F)ccc3n2C2CCC2)nc1 [compound 9, N-tert-butyl-6-(3-cyano-1-cyclobutyl-5-fluoro-1H-indol-2-yl)pyridine-3-sulfonamide]	181 to 185 °C	< 500 nM
CCc1cc2c(cc1F)c(C(N)=O)c(-c1ccc(S(=O)(=O)NC(C)(C)C(F)(F)F)cn1)n2C1CCCC1 [compound 871, 1-cyclopentyl-6-ethyl-5-fluoro-2-{5-[(1,1,1-trifluoro-2-methylpropan-2-yl)sulfamoyl]pyridin-2-yl}-1H-indole-3-carboxamide]	185 to 188 °C	< 500 nM
Cc1cc2c(cc1F)c(C#N)c(-c1ccc(S(=O)(=O)N[C@@H](C)C(F)(F)F)cn1)n2-c1ccc(C#N)cn1 [compound 743, 6-[3-cyano-1-(5-cyanopyridin-2-yl)-5-fluoro-6-methyl-1H-indol-2-yl]-N-[(2S)-1,1,1-trifluoropropan-2-yl]pyridine-3-sulfonamide]	276 to 277 °C	< 500 nM
NC(=O)c1c(-c2ccc(S(=O)(=O)NC(CF)CF)cn2)n(C2CCC2)c2cc(OC(F)F)ccc12 [compound 581, 1-cyclobutyl-6-(difluoromethoxy)-2-{5-[(1,3-difluoropropan-2-yl)sulfamoyl]pyridin-2-yl}-1H-indole-3-carboxamide]	211 to 213 °C	< 500 nM
N#Cc1c(-c2ncc(S(=O)(=O)NC(CF)CF)cn2)n(-c2ccccn2)c2cc(Cl)ccc12 [compound 450, 2-[6-chloro-3-cyano-1-(pyridin-2-yl)-1H-indol-2-yl]-N-(1,3-difluoropropan-2-yl)pyrimidine-5-sulfonamide]	234 to 235 °C	< 500 nM
C[C@H](NS(=O)(=O)c1cnc(-c2c(C#N)c3cc(C#N)ccc3n2C2CCCC2)nc1)C1CC1 [compound 367, N-[(1S)-1-cyclopropylethyl]-2-(3,5-dicyano-1-cyclopentyl-1H-indol-2-yl)pyrimidine-5-sulfonamide]	218 to 223 °C	500 to 2000 nM
Cc1ccc2c(c1)c(C#N)c(-c1ccc(S(=O)(=O)N[C@H](C)C(F)(F)F)cn1)n2C1CCCCC1 [compound 487, 6-(3-cyano-1-cyclohexyl-5-methyl-1H-indol-2-yl)-N-[(2R)-1,1,1-trifluoropropan-2-yl]pyridine-3-sulfonamide]	180 to 189 °C	< 500 nM
